Target: T1, CCR2 (Homo sapiens, UniProt P41597)
T1 construct: host or cells: THP-1 (human monocytic cell line)
Assay: MCP-1 Receptor Binding Assay in THP-1 Cells
Details: read-out: MCP1B_v3 IC50
Summary of the method: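 Human monocytic THP-1 cells incubated 2 h at 30 °C with 0.5 nM 125I-MCP-1 and varying concentrations of test compound or unlabelled MCP-1. Cells filter-harvested and counted by scintillation; blank subtracted, compared with vehicle; nonspecific binding with 1 μM cold MCP-1.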

T1 sequence (P41597 whole entry): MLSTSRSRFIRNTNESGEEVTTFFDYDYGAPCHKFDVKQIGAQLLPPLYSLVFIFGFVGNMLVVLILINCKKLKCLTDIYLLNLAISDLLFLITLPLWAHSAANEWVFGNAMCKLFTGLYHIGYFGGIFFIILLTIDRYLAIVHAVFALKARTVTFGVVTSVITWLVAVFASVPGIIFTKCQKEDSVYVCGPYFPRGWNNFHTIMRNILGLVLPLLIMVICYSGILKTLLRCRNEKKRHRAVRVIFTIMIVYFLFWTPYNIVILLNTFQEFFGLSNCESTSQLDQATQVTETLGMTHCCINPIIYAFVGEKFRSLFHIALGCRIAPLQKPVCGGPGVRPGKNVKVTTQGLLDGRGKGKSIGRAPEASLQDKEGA

Compound | IC50 [µM]
COC1COCCC1N[C@@H]1C[C@H]2CN(C(=O)c3ncco3)C[C@@]2(C(=O)N2CCc3ncc(C(F)(F)F)cc3C2)C1 (relative stereo) [Example 70, ((3aR,5R,6aR)-5-(((3S*,4S*)-3-Methoxytetrahydro-2H-pyran-4-yl)amino)-2-(oxazole-2-carbonyl)octahydrocyclopenta[c]pyrrol-3a-yl)(3-(trifluoromethyl)-7,8-dihydro-1,6-naphthyridin-6(5H)-yl)methanone] | 0.08
COC1COCCC1N[C@@H]1C[C@H]2CN(C(=O)c3ccno3)C[C@@]2(C(=O)N2CCc3ncc(C(F)(F)F)cc3C2)C1 (relative stereo) [Example 71, Isoxazol-5-yl((3aR,5R,6aR)-5-(((3S*,4S*)-3-methoxytetrahydro-2H-pyran-4-yl)amino)-3a-(3-(trifluoromethyl)-5,6,7,8-tetrahydro-1,6-naphthyridine-6-carbonyl)hexahydrocyclopenta-[c]pyrrol-2(1H)-yl)methanone] | 0.16
COC1COCCC1N[C@@H]1C[C@H]2CN(C(=O)CN(C)C)C[C@@]2(C(=O)N2CCc3ncc(C(F)(F)F)cc3C2)C1 (relative stereo) [Example 76, 2-(Dimethylamino)-1-((3aR,5R,6aR)-5-(((3S*,4S*)-3-methoxytetrahydro-2H-pyran-4-yl)amino)-3a-(3-(trifluoromethyl)-5,6,7,8-tetrahydro-1,6-naphthyridine-6-carbonyl)hexahydrocyclopenta[c]pyrrol-2(1H)-yl)ethanone] | 0.16
COC1COCCC1N[C@@H]1C[C@H]2CN(C(=O)CCN(C)C)C[C@@]2(C(=O)N2CCc3ncc(C(F)(F)F)cc3C2)C1 (relative stereo) [Example 77, 3-(Dimethylamino)-1-((3aR,5R,6aR)-5-(((3S*,4S*)-3-methoxytetrahydro-2H-pyran-4-yl)amino)-3a-(3-(trifluoromethyl)-5,6,7,8-tetrahydro-1,6-naphthyridine-6-carbonyl)hexahydrocyclopenta[c]pyrrol-2(1H)-yl)propan-1-one] | 0.23
COC1COCCC1N[C@@H]1C[C@H]2CN(C(=O)CCCN(C)C)C[C@@]2(C(=O)N2CCc3ncc(C(F)(F)F)cc3C2)C1 (relative stereo) [Example 78, 4-(Dimethylamino)-1-((3aR,5R,6aR)-5-(((3S*,4S*)-3-methoxytetrahydro-2H-pyran-4-yl)amino)-3a-(3-(trifluoromethyl)-5,6,7,8-tetrahydro-1,6-naphthyridine-6-carbonyl)-hexahydrocyclopenta[c]pyrrol-2(1H)-yl)butan-1-one] | 0.23
COC1COCCC1N[C@@H]1C[C@H]2CN(C(=O)C#CC3CC3)C[C@@]2(C(=O)N2CCc3ncc(C(F)(F)F)cc3C2)C1 (relative stereo) [Example 86, 3-Cyclopropyl-1-((3aR,5R,6aR)-5-(((3S*,4S*)-3-methoxytetrahydro-2H-pyran-4-yl)amino)-3a-(3-(trifluoromethyl)-5,6,7,8-tetrahydro-1,6-naphthyridine-6-carbonyl)hexahydro-cyclopenta[c]pyrrol-2(1H)-yl)prop-2-yn-1-one] | 0.09
COC1COCCC1N[C@@H]1C[C@H]2CN(C(=O)CNC(=O)OC(C)(C)C)C[C@@]2(C(=O)N2CCc3ncc(C(F)(F)F)cc3C2)C1 (relative stereo) [Example 87, tert-Butyl (2-((3aR,5R,6aR)-5-(((3S*,4S*)-3-methoxytetrahydro-2H-pyran-4-yl)amino)-3a-(3-(trifluoromethyl)-5,6,7,8-tetrahydro-1,6-naphthyridine-6-carbonyl)hexahydrocyclopenta[c]pyrrol-2(1H)-yl)-2-oxoethyl)carbamate] | 0.36
COC1COCCC1N[C@@H]1C[C@H]2CN(C(=O)/C=C/CN3CCCC3)C[C@@]2(C(=O)N2CCc3ncc(C(F)(F)F)cc3C2)C1 (relative stereo) [Example 88, (E)-1-((3aR,5R,6aR)-5-(((3S*,4S*)-3-methoxytetrahydro-2H-pyran-4-yl)amino)-3a-(3-(trifluoromethyl)-5,6,7,8-tetrahydro-1,6-naphthyridine-6-carbonyl)hexahydro-cyclopenta[c]pyrrol-2(1H)-yl)-4-(pyrrolidin-1-yl)but-2-en-1-one] | 0.04
CO[C@@H]1COCC[C@@H]1N[C@@H]1C[C@H]2CN(C(=O)/C=C/c3ccc(C(=O)O)cc3)C[C@@]2(C(=O)N2CCc3ccc(C(F)(F)F)cc3C2)C1 (relative stereo) [Example 89, 4-((E)-3-((3aR,5R,6aR)-5-(((3S*,4S*)-3-methoxytetrahydro-2H-pyran-4-yl)amino)-3a-(7-(trifluoromethyl)-1,2,3,4-tetrahydroisoquinoline-2-carbonyl)hexahydrocyclopenta-[c]pyrrol-2(1H)-yl)-3-oxoprop-1-en-1-yl)benzoic acid] | 0.01
CO[C@@H]1COCC[C@@H]1N[C@@H]1C[C@H]2CN(C(=O)/C=C/c3cccc(C(=O)O)c3)C[C@@]2(C(=O)N2CCc3ccc(C(F)(F)F)cc3C2)C1 (relative stereo) [Example 90, 3-((E)-3-((3aR,5R,6aR)-5-(((3S*,4S*)-3-methoxytetrahydro-2H-pyran-4-yl)amino)-3a-(7-(trifluoromethyl)-1,2,3,4-tetrahydroisoquinoline-2-carbonyl)hexahydrocyclopenta-[c]pyrrol-2(1H)-yl)-3-oxoprop-1-en-1-yl)benzoic acid] | 0.01
COC1COCCC1N[C@@H]1C[C@H]2CN(S(C)(=O)=O)C[C@@]2(C(=O)N2CCc3ncc(C(F)(F)F)cc3C2)C1 (relative stereo) [Example 91, ((3aR,5R,6aR)-5-(((3S*,4S*)-3-Methoxytetrahydro-2H-pyran-4-yl)amino)-2-(methylsulfonyl)octahydrocyclopenta[c]pyrrol-3a-yl)(3-(trifluoromethyl)-7,8-dihydro-1,6-naphthyridin-6(5H)-yl)methanone] | 0.61

Continued, values first:

IC50 [µM] | Compound
0.13 | COC1COCCC1N[C@@H]1C[C@H]2CN(C(=O)COc3ccccc3)C[C@@]2(C(=O)N2CCc3ncc(C(F)(F)F)cc3C2)C1 (relative stereo) [Example 68, 1-((3aR,5R,6aR)-5-(((3S*,4S*)-3-Methoxytetrahydro-2H-pyran-4-yl)amino)-3a-(3-(trifluoromethyl)-5,6,7,8-tetrahydro-1,6-naphthyridine-6-carbonyl)hexahydrocyclopenta-[c]pyrrol-2(1H)-yl)-2-phenoxyethanone]
0.15 | COC1COCCC1N[C@@H]1C[C@H]2CN(C(=O)c3ccccc3)C[C@@]2(C(=O)N2CCc3ncc(C(F)(F)F)cc3C2)C1 (relative stereo) [Example 69, ((3aR,5R,6aR)-2-Benzoyl-5-(((3S*,4S*)-3-methoxytetrahydro-2H-pyran-4-yl)amino)-octahydrocyclopenta[c]pyrrol-3a-yl)(3-(trifluoromethyl)-7,8-dihydro-1,6-naphthyridin-6(5H)-yl)methanone]
0.03 | COC1COCCC1N[C@@H]1C[C@H]2CN(C(=O)c3cocn3)C[C@@]2(C(=O)N2CCc3ncc(C(F)(F)F)cc3C2)C1 (relative stereo) [Example 72, ((3aR,5R,6aR)-5-(((3S*,4S*)-3-Methoxytetrahydro-2H-pyran-4-yl)amino)-2-(oxazole-4-carbonyl)octahydrocyclopenta[c]pyrrol-3a-yl)(3-(trifluoromethyl)-7,8-dihydro-1,6-naphthyridin-6(5H)-yl)methanone]
0.36 | C#CC(=O)N1C[C@@H]2C[C@@H](NC3CCOCC3OC)C[C@]2(C(=O)N2CCc3ncc(C(F)(F)F)cc3C2)C1 (relative stereo) [Example 73, 1-((3aR,5R,6aR)-5-(((3S*,4S*)-3-Methoxytetrahydro-2H-pyran-4-yl)amino)-3a-(3-(trifluoromethyl)-5,6,7,8-tetrahydro-1,6-naphthyridine-6-carbonyl)hexahydrocyclopenta-[c]pyrrol-2(1H)-yl)prop-2-yn-1-one]
0.17 | COC1COCCC1N[C@@H]1C[C@H]2CN(C(=O)CNC(C)=O)C[C@@]2(C(=O)N2CCc3ncc(C(F)(F)F)cc3C2)C1 (relative stereo) [Example 75, N-(2-((3aR,5R,6aR)-5-(((3S*,4S*)-3-Methoxytetrahydro-2H-pyran-4-yl)amino)-3a-(3-(trifluoromethyl)-5,6,7,8-tetrahydro-1,6-naphthyridine-6-carbonyl)hexahydrocyclopenta-[c]pyrrol-2(1H)-yl)-2-oxoethyl)acetamide]
0.5 | COC1COCCC1N[C@@H]1C[C@H]2CN(C(=O)CCN3CCCCC3)C[C@@]2(C(=O)N2CCc3ncc(C(F)(F)F)cc3C2)C1 (relative stereo) [Example 79, 1-((3aR,5R,6aR)-5-(((3S*,4S*)-3-Methoxytetrahydro-2H-pyran-4-yl)amino)-3a-(3-(trifluoromethyl)-5,6,7,8-tetrahydro-1,6-naphthyridine-6-carbonyl)hexahydrocyclopenta-[c]pyrrol-2(1H)-yl)-3-(piperidin-1-yl)propan-1-one]
0.23 | COC1COCCC1N[C@@H]1C[C@H]2CN(C(=O)CCN3CCOCC3)C[C@@]2(C(=O)N2CCc3ncc(C(F)(F)F)cc3C2)C1 (relative stereo) [Example 80, 1-((3aR,5R,6aR)-5-(((3S*,4S*)-3-Methoxytetrahydro-2H-pyran-4-yl)amino)-3a-(3-(trifluoromethyl)-5,6,7,8-tetrahydro-1,6-naphthyridine-6-carbonyl)hexahydrocyclopenta-[c]pyrrol-2(1H)-yl)-3-morpholinopropan-1-one]
0.04 | COC1COCCC1N[C@@H]1C[C@H]2CN(C(=O)c3nccs3)C[C@@]2(C(=O)N2CCc3ncc(C(F)(F)F)cc3C2)C1 (relative stereo) [Example 81, ((3aR,5R,6aR)-5-(((3S*,4S*)-3-Methoxytetrahydro-2H-pyran-4-yl)amino)-2-(thiazole-2-carbonyl)octahydrocyclopenta[c]pyrrol-3a-yl)(3-(trifluoromethyl)-7,8-dihydro-1,6-naphthyridin-6(5H)-yl)methanone]
